Results as given in PubChem BioAssay AID1963842 (Molecular Pharmacology Branch, DTP, NCI, 2024).
Where “and” joins values, the source holds several entries; their conditions need not be identical. Equal entries are not always repeated.

System: 677734-321-R-J1-PDC complex spheroid viability
Assay: Anticancer human tumor 677734-321-R-J1-PDC patient-derived soft tissue sarcoma cell line growth inhibition [POLQ]
Conditions: for viability, T/C: stronger effect = lower value
Experimental: Multicellular complex tumor spheroid response to Polymerase (POL) inhibitors (novobiocin, ART-558, RP6685) in combination with a variety of drugs and investigational agents in selected tumor cell lines
The POL inhibitors (novobiocin, ART-558, and RP6685) were evaluated both individually and in combination with standard of care and investigational anticancer small molecules within a complex spheroid model of solid tumors. . Complex spheroids include a stromal component modeled by human endothelial cells (HUVEC) and fibroblasts modeled by human mesenchymal stem cells (MSCs). The concentration ranges selected for each drug and investigational agent were based upon clinically achievable concentrations if the clinical Cmax of the agent was known.
Compounds. The drugs and investigational agents: novobiocin (NSC847541), ART-558 (NSC835418), RP-6685 (NSC848927), peposertib (NSC802822), ceralasertib (NSC780249), elimusertib (NSC800525), camonsertib (NSC841442), AZD-1390 (NSC803789), olaparib (NSC753686), talazoparib (NSC767125), rucaparib (NSC756644), sotorasib (NSC818433), MRTX-1133 (NSC836407), SN-38 (NSC673596), topotecan (NSC609699), epotoside (NSC141540), doxorubicin (NSC123127), gemcitabine (NSC613327), 5-fluorouracil (NSC19893), paclitaxel (NSC125973), vemurafenib (NSC761431), MSA-2 (NSC828583), SN-011 (NSC837082), adavosertib (NSC754352), prexasertib (NSC758257), carboplatin (NSC241240) and oxaliplatin (NSC266046), were obtained from the National Cancer Institute (NCI) Developmental Therapeutics Program Chemical Repository (21). The FDA-approved anticancer drug set is available from the Developmental Therapeutics Program at https://dtp.cancer.gov/organization/dscb/obtaining/. […] The stock solutions were prepared in dimethyl sulfoxide (DMSO, Sigma-Aldrich, St. Louis, MO, cat. D2650), except for the platinum compounds which were prepared in saline (Quality Biological, Gaithersburg, MD, cat. 114-055-101), at 800-fold the tested concentration and stored at -70 degrees C prior to their use. All drugs and investigational agents were tested over a range starting from a high concentration at or near the clinical Cmax and decreasing in half-log increments. If the clinical Cmax for an agent had not been determined, the highest concentration tested was 10 microM, except for SN-38, which was tested at a high concentration of 1 microM.
Cell Culture. All cells were maintained in an incubator at 37 degrees C and 5% CO2 with 95% humidity. The PDC lines were cultured according to standard operating procedures established by the NCI PDMR (https://pdmr.cancer.gov). Table 3 of the manuscript, lists the cell lines along with the number of the three cell types plated to form the mct-spheroids and media for tumor cell growth. After thawing, all PDC lines, except 997537-175-T-J1-PDC and 415267-285-R-J2-PDC, were cultured in Matrigel-coated flasks prepared with a working solution of 1X Ham's F-12 nutrient mix, without supplementation (Thermo Fisher Scientific, cat. 11765054), 100 U/mL penicillin-streptomycin (Thermo Fisher Scientific, cat. 15140122), and 2.5% Matrigel (Corning Inc., Corning, NY, cat. 354248) for the first three passages. The two PDC lines 997537-175-T-J1-PDC and 415267-285-R-J2-PDC were cultured on uncoated flasks. The 857933-349-R-J2-PDC line was cultured in 6C/Colon 1B media containing advanced DMEM/F-12 (Thermo Fisher Scientific, cat. 12634028), 10 mM HEPES (Thermo Fisher Scientific, cat. 15630080), 1X GlutaMAX supplement (Thermo Fisher Scientific, cat. 35050061), 0.1 mg/mL primocin (InvivoGen, San Diego, CA, cat. ant-pm-2), 10% defined fetal bovine serum, heat inactivated (HyClone Laboratories Inc., Logan, UT, cat. SH30070.03HI), 50% L-WRN conditioned media (ATCC, cat. CRL-3276), 1.25 mM N-Acetyl-L-cysteine (Sigma-Aldrich, cat. A9165), 10 mM nicotinamide (Sigma-Aldrich, cat. N0636), 1X B-27 supplement (Thermo Fisher Scientific, cat. 17504044), 1X N-2 supplement (Thermo Fisher Scientific, cat. […]
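Also: spheroids exposed to compounds for one week.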
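For viability, T/C in this document: 100% = vehicle DMSO treated spheroids.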

COc1cccc2c1C(=O)c1c(O)c3c(c(O)c1C2=O)CC(O)(C(=O)CO)CC3OC1CC(N)C(O)C(C)O1 (stereo unspecified)
viability, T/C (compound 0.0316 µM): 86.2% and 48.1% and 72.7% | viability, T/C (compound 0.1 µM): 48.5% and 29% and 48.7% | viability, T/C (compound 0.316 µM): 8% and 4.1% and 6.65% | viability, T/C (compound 1 µM): 0.91% and 1.65% | viability, T/C (compound 3.16 µM): 2.59% and 1.37% and 2.03% | viability, T/C (compound 10 µM): 3.4% and 0.66% and 2.59% | IC50 (curve of compound): 95.6 nM and < 31.6 nM and 93.8 nM

COC1C(OC(N)=O)C(O)C(Oc2ccc3c(O)c(NC(=O)c4ccc(O)c(CC=C(C)C)c4)c(=O)oc3c2C)OC1(C)C (stereo unspecified)
viability, T/C (compound 0.0316 µM): 103% [middle of 13 runs] | viability, T/C (compound 0.1 µM): 104% [middle of 13 runs] | viability, T/C (compound 0.316 µM): 110% [middle of 13 runs] | viability, T/C (compound 1 µM): 104% [middle of 13 runs] | viability, T/C (compound 3.16 µM): 106% [middle of 13 runs] | viability, T/C (compound 10 µM): 106% [middle of 13 runs] | IC50 (compound alone, run of 11/27/2023): > 10000 nM

CC[C@@]1(O)C(=O)OCc2c1cc1n(c2=O)Cc2cc3c(CN(C)C)c(O)ccc3nc2-1
viability, T/C (compound 0.000316 µM): 104% (2×) and 105% | viability, T/C (compound 0.001 µM): 111% and 90.9% and 101% | viability, T/C (compound 0.00316 µM): 105% and 100% and 109% | viability, T/C (compound 0.01 µM): 98.2% and 82.6% and 99.5% | viability, T/C (compound 0.0316 µM): 46.4% and 25.9% and 36.8% | viability, T/C (compound 0.1 µM): 18% and 13.8% and 15% | IC50 (curve of compound): 29.2 nM and 19.4 nM and 24.8 nM

COc1cccc(OCCCN)c1-c1cc(Nc2cnc(C#N)cn2)n[nH]1 + Nc1ccc(C#CCN(C(=O)Cc2ncc(C(F)(F)F)cc2C(F)(F)F)c2ccc(F)cc2)nn1
IC50 (curve of first compound, second compound 0.0316 µM): 6.21 nM | IC50 (curve of first compound, second compound 0.1 µM): 4.6 nM | IC50 (curve of first compound, second compound 0.316 µM): 5.33 nM | IC50 (curve of first compound, second compound 1 µM): 6.15 nM | IC50 (curve of first compound, second compound 3.16 µM): 4.93 nM | IC50 (curve of first compound, second compound 10 µM): 3.71 nM | viability, T/C (second compound 0.0316 µM, first compound 0.00316 µM): 101% | viability, T/C (second compound 0.0316 µM, first compound 0.01 µM): 13.8% | viability, T/C (second compound 0.0316 µM, first compound 0.0316 µM): 5.82% | viability, T/C (second compound 0.0316 µM, first compound 0.1 µM): 6.83% | viability, T/C (second compound 0.0316 µM, first compound 0.316 µM): 7.28% | viability, T/C (second compound 0.0316 µM, first compound 1 µM): 5.14% | viability, T/C (second compound 0.1 µM, first compound 0.00316 µM): 67.2% | viability, T/C (second compound 0.1 µM, first compound 0.01 µM): 14.3% | viability, T/C (second compound 0.1 µM, first compound 0.0316 µM): 6.58% | viability, T/C (second compound 0.1 µM, first compound 0.1 µM): 6.56% | viability, T/C (second compound 0.1 µM, first compound 0.316 µM): 8.96% | viability, T/C (second compound 0.1 µM, first compound 1 µM): 3.87% | viability, T/C (second compound 0.316 µM, first compound 0.00316 µM): 77% | viability, T/C (second compound 0.316 µM, first compound 0.01 µM): 17.7% | viability, T/C (second compound 0.316 µM, first compound 0.0316 µM): 5.86% | viability, T/C (second compound 0.316 µM, first compound 0.1 µM): 9.23% | viability, T/C (second compound 0.316 µM, first compound 0.316 µM): 6.18% | viability, T/C (second compound 0.316 µM, first compound 1 µM): 5.17% | viability, T/C (second compound 1 µM, first compound 0.00316 µM): 83.6% | viability, T/C (second compound 1 µM, first compound 0.01 µM): 25.5% | viability, T/C (second compound 1 µM, first compound 0.0316 µM): 6% | viability, T/C (second compound 1 µM, first compound 0.1 µM): 6.97% | viability, T/C (second compound 1 µM, first compound 0.316 µM): 6.56% | viability, T/C (second compound 1 µM, first compound 1 µM): 5.02% | viability, T/C (second compound 3.16 µM, first compound 0.00316 µM): 72.7% | viability, T/C (second compound 3.16 µM, first compound 0.01 µM): 13.8% | viability, T/C (second compound 3.16 µM, first compound 0.0316 µM): 9% | viability, T/C (second compound 3.16 µM, first compound 0.1 µM): 6.22% | viability, T/C (second compound 3.16 µM, first compound 0.316 µM): 7.97% | viability, T/C (second compound 3.16 µM, first compound 1 µM): 5.64% | viability, T/C (second compound 10 µM, first compound 0.00316 µM): 56.6% | viability, T/C (second compound 10 µM, first compound 0.01 µM): 9.16% | viability, T/C (second compound 10 µM, first compound 0.0316 µM): 6.91% | viability, T/C (second compound 10 µM, first compound 0.1 µM): 7.72% | viability, T/C (second compound 10 µM, first compound 0.316 µM): 6.82% | viability, T/C (second compound 10 µM, first compound 1 µM): 5.03%

COc1cc2cc(C(=O)CCC(=O)O)sc2cc1OC
viability, T/C (compound 0.0316 µM): 100% and 108% and 101% | viability, T/C (compound 0.1 µM): 94.4% and 93.7% and 102% | viability, T/C (compound 0.316 µM): 82% and 105% and 114% | viability, T/C (compound 1 µM): 95.8% and 98.6% and 106% | viability, T/C (compound 3.16 µM): 97.5% and 107% and 106% | viability, T/C (compound 10 µM): 105% and 99.9% and 113% | IC50 (curve of compound): > 10000 nM

Cn1ncnc1[C@H]1c2n[nH]c(=O)c3cc(F)cc(c23)N[C@@H]1c1ccc(F)cc1
viability, T/C (compound 0.000316 µM): 101% and 87.2% and 106% | viability, T/C (compound 0.001 µM): 104% and 93.2% and 95.4% | viability, T/C (compound 0.00316 µM): 97.4% and 107% and 117% | viability, T/C (compound 0.01 µM): 105% and 94.7% and 104% | viability, T/C (compound 0.0316 µM): 98.8% and 94.5% and 106% | viability, T/C (compound 0.1 µM): 93% and 75.8% and 93.5% | IC50 (curve of compound): > 100 nM

O=c1[nH]cc(F)c(=O)[nH]1
viability, T/C (compound 0.0316 µM): 116% and 111% and 113% | viability, T/C (compound 0.1 µM): 101% and 86.4% and 96.7% | viability, T/C (compound 0.316 µM): 108% and 104% (2×) | viability, T/C (compound 1 µM): 85.4% and 84.6% and 91.5% | viability, T/C (compound 3.16 µM): 54.7% and 62.5% and 51.4% | viability, T/C (compound 10 µM): 44.1% and 59% and 42.7% | IC50 (curve of compound): 5220 nM and > 10000 nM and 3840 nM

CCCS(=O)(=O)Nc1ccc(F)c(C(=O)c2c[nH]c3ncc(-c4ccc(Cl)cc4)cc23)c1F
viability, T/C (compound 0.0316 µM): 109% and 98.3% and 104% | viability, T/C (compound 0.1 µM): 98% (2×) and 103% | viability, T/C (compound 0.316 µM): 90.9% and 101% and 108% | viability, T/C (compound 1 µM): 97.4% and 115% and 111% | viability, T/C (compound 3.16 µM): 71.8% and 98.3% and 112% | viability, T/C (compound 10 µM): 4.28% and 6.33% and 14.5% | IC50 (curve of compound): 4610 nM and 5800 nM and 6450 nM
